Where no end group is shown, it is not given here. [ ]: non-standard residue; d: D form. Gla = N[C@@H](CC(C(=O)O)C(=O)O)C(=O)O

We go through ten compounds from patent US9180164B2, “Compounds and methods of modulating angiogenesis” (THE CLEVELAND CLINIC FOUNDATION, priority 2011, dated 2015).

Test [1] concerns the target T1, αvβ3 integrin (Mus musculus, UniProt O54890+P43406).
T1 construct: endogenous in cells; host or cells: primary mouse lung endothelial cells
T1 sequence (O54890 26-787): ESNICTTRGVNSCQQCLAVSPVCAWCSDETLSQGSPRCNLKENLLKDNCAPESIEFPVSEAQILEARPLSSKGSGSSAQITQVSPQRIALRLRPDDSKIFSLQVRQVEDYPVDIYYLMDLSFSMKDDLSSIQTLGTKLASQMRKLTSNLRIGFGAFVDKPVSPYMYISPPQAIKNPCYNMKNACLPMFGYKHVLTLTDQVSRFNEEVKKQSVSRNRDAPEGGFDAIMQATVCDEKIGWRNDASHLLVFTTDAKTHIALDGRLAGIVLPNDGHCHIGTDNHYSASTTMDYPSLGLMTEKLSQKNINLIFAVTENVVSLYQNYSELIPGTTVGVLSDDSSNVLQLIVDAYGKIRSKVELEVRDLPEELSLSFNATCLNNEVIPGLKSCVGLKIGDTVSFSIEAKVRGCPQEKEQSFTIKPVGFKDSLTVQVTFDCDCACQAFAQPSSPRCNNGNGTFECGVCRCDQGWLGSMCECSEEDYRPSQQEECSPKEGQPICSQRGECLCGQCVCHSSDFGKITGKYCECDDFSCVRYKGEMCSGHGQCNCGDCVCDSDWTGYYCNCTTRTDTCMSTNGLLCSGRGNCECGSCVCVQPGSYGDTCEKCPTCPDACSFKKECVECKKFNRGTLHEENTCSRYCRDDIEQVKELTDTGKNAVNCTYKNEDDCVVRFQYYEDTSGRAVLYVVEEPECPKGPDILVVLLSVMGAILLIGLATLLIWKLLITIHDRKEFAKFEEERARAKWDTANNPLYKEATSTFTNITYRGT
T1 sequence (P43406 31-885 limits assumed): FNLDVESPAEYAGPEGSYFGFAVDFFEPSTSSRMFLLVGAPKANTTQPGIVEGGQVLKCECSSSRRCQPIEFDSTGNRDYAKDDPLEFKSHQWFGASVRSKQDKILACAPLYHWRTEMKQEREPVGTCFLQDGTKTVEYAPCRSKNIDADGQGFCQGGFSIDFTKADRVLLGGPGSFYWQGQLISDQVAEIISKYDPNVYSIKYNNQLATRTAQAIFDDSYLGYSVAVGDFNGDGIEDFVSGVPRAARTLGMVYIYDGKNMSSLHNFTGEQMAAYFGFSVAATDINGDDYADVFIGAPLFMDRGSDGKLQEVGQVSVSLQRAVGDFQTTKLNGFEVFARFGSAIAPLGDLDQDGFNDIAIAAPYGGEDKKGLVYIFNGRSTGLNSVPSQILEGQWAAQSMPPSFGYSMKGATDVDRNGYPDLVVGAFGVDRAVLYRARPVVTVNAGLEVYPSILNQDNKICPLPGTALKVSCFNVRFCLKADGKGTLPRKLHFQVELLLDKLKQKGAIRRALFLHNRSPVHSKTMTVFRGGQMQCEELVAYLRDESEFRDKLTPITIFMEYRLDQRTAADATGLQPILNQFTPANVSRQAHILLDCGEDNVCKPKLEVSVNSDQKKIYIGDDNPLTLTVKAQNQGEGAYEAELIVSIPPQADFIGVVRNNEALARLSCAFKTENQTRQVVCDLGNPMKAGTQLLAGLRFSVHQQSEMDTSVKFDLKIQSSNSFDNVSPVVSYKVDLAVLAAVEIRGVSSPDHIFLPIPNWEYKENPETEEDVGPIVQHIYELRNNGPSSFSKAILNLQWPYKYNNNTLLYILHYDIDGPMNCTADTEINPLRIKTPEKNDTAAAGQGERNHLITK
T1 sequence (P43406 887-1044 limits assumed): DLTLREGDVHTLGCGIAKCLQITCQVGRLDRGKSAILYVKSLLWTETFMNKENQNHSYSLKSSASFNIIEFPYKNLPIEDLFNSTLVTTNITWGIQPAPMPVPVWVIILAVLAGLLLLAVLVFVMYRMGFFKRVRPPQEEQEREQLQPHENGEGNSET
Briefly: Fibrinogen binding assay (FACS). The note with it: WT EC; 20 ng/ml VEGF or 1 mM MnCl2. Format: cell-based. The protocol: (§1) To assess fibrinogen binding, semiconfluent wild type and DiYF mouse lung endothelial cells were serum starved for 4 h and further induced with 20 ng/ml VEGF-165, 20 ng/ml b-FGF or 1 mm MnC12. Fluorescein isothiocyanate (FITC)-labeled fibrinogen was added at a final concentration of 200 nM for 45 min. […] Fluorescence-activated cell sorting (FACS) was performed using a FACS Calibur (Becton Dickinson, San Jose, Calif.) and data were analyzed using CellQuest software program.

The test system of test [2] is αvβ3 integrin. In words: Fibrinogen binding assay (FACS). Format: cell-based, mouse. As to conditions: DiYF EC; 20 ng/ml VEGF or 1 mM MnCl2. As to the method:
as §1

Test [3] has as its target T1, αvβ3 integrin. In words: WOW-1 binding assay, mouse lung endothelial cells. Format: cell-based. As to conditions: WT EC; 20 ng/ml VEGF or 1 mM MnCl2. The protocol: (§2) Wild type and DiYF mouse lung endothelial cells were serum starved for 4 h and further stimulated with 20 ng/ml VEGF-165, 20 ng/ml b-FGF or 1 mm MnC12 separately. WoW-1 Fab was added at a final concentration of […], followed by addition of Fluorescein isothiocyanate (FITC) conjugated goat anti-mouse IgG at 10 μg/ml. After 30 min cells were fixed with 3.7% formaldehyde/PBS for 15 min, washed twice with 1×PBS and FACS was performed using a FACS Calibur (Becton Dickinson, San Jose, Calif.) instrument and data were analyzed using CellQuest software program.

The subject of test [4] is αvβ3 integrin. Briefly: WOW-1 binding assay, mouse lung endothelial cells. In kind it is cell-based. The note with it: DiYF EC; 20 ng/ml VEGF or 1 mM MnCl2. As to the method: as §2
The test system of test [5] is human melanoma cells (WM-164). In words: Apoptosis in melanoma cells. Format: cell-based. As to conditions: 100 μM. As to the method:
To the examine the effect of beta-3 integrin cytoplasmic domain inhibitory peptides on tumor progressino we treated human melanoma cells (WM-164) with either 100 μM of control peptide or with equal amount of inhibiting peptide 07-240 (HIV-TAT-(NPLXK) (SEQ ID NO: 7)), inhibiting peptide 07-241 (HIV-TAT-(NPLDK) (SEQ ID NO: 9)), inhibiting peptide 07-243 (HIV-TAT-(NITXR) (SEQ ID NO: 8)), and inhibiting peptide 07-244 (HIV-TAT-(NITDR) (SEQ ID NO: 10)), where X is γ-carboxyglutamic acid.

The test system of test [6] is subcutaneously implanted tumors. In words: Progression of subcutaneously implanted tumors. The note with it: 100 μM. Format: in vivo, mice. The protocol: To the examine the effect of beta-3 integrin cytoplasmic domain inhibitory peptides on tumor progressino we subcutaneously implanted tumors in mice and then treated the mice with either 100 μM of control peptide or with equal amount of inhibiting peptide 1 (RR cyclic (NPLXK) (SEQ ID NO: 7), disulfide bridge cycle), inhibiting peptide 2 (RR cyclic (NITXR) (SEQ ID NO: 8), disulfide bridge cycle), inhibiting peptide 3 ([…] cyclic (NPLXK) (SEQ ID NO: 7), disulfide bridge cycle), inhibiting peptide 4 ([…] cyclic (NITXR) (SEQ ID NO: 8), disulfide bridge cycle), inhibiting peptide 5 (RR linear (NPLXK) (SEQ ID NO: 7)); and inhibiting peptide 6 (RR linear (NITXR) (SEQ ID NO: 8)), where X is γ-carboxyglutamic acid.

The test system of the next test is WT mouse aortic rings. In words: Mouse aortic ring angiogenesis. Format: cell-based. As to conditions: 50 μM, in the presence of VEGF, 1 week. The protocol: Thoracic aortas from WT and DiYF mice were removed under aseptic conditions and spliced into 1 mm thick rings. Thoracic aortic rings were placed between two layers of growth factor depleted Matrigel and allowed to solidify at room temperature. Matrigels were overlaid with either with DMEM or endothelial growth medium with or without VEGF (40 ng/ml). Microvessel outgrowth was visualized by phase contrast microscopy and numbers of vessels growing from each aortic ring were counted and photographed every two days using Leica phase contrast microscope.
To examine the effect of cyclic inhibiting peptides on mouse aortic ring angiogensis, thoracic aortas from WT mice were removed under aseptic conditions and spliced into 1 mm thick rings. Thoracic aortic rings were placed between two layers of growth factor depleted Matrigel and allowed to solidify at room temperature. Matrigels were administered VEGF and 50 μM control peptides or with equal amounts of inhibiting peptide 1 (RR cyclic (NPLXK) (SEQ ID NO: 39), disulfide bridge cycle), inhibiting peptide 2 (RR cyclic (NITXR) (SEQ ID NO: 40), disulfide bridge cycle), inhibiting peptide 3 (RRRKKRKRRR cyclic (NPLXK) (SEQ ID NO: 41), disulfide bridge cycle), and inhibiting peptide 4 (RRRKKRKRRR cyclic (NITXR) (SEQ ID NO: 42), disulfide bridge cycle), where X is γ-carboxyglutamic acid. Microvessel outgrowth was visualized by phase contrast microscopy and numbers of vessels growing from each aortic ring were counted and photographed every two days using Leica phase contrast microscope after 1 week.

`[Cl][Mn][Cl]` [MnCl2]: the entries for the “increase of fibrinogen binding” value at αvβ3 integrin [1] and in the test with αvβ3 integrin [2] were “at least 40 fold” and 17 fold, respectively. Further, the “increase in WOW-1 binding” value at αvβ3 integrin [3] turned out to be 30 fold; with αvβ3 integrin [4], 14 fold.
Regarding “HIV-TAT-(NITDR) (listed as Homo sapiens) [07-244]”, the “apoptosis in melanoma cells compared to a control” value in test [5] is “induced apoptosis”.
Same read-out and setting: next, “HIV-TAT-(NITXR) ({HIV‑TAT}-NIT[Gla]R; not fully specified; printed as HIV-TAT-(NITXR); listed as Homo sapiens) [07-243, X is γ-carboxyglutamic acid]”: “induced apoptosis”.
On the same count and under the same terms, next, “HIV-TAT-(NPLDK) (listed as Homo sapiens) [07-241]”: “induced apoptosis”.
Take “HIV-TAT-(NPLXK) ({HIV‑TAT}-NPL[Gla]K; not fully specified; printed as HIV-TAT-(NPLXK); listed as Homo sapiens) [07-240, X is γ-carboxyglutamic acid]”: in test [5], the “apoptosis in melanoma cells compared to a control” value is “induced apoptosis”.
In the case of “RR cyclic (NITXR) (RRNIT[Gla]R; disulfide (positions not given here); not fully specified; printed as RR cyclic (NITXR); also: cyclic, closure not given here; listed as Homo sapiens) [inhibiting peptide 2, X is γ-carboxyglutamic acid]”, the “tumor progression compared to a control” value in test [6] is on record as “substantially reduced tumor progression”. Besides, in the test with WT mouse aortic rings, the “angiogenesis of the mouse aortic rings (microvessel outgrowth)” value (shortened to “angiogenesis of the mouse aortic rings”) was “inhibited angiogenesis”.
“RR cyclic (NPLXK) (RRNPL[Gla]K; disulfide (positions not given here); also: NPLXK part cyclic via disulfide bridge, no Cys in given letters; listed as Homo sapiens) [inhibiting peptide 1, X is γ-carboxyglutamic acid]”: in test [6], the “tumor progression compared to a control” value is “substantially reduced tumor progression”. Also, in the test on WT mouse aortic rings, the “angiogenesis of the mouse aortic rings” value is on record as “inhibited angiogenesis”.
“RR linear (NITXR) (RRNIT[Gla]R; listed as Homo sapiens) [inhibiting peptide 6, X is γ-carboxyglutamic acid]”: in test [6], the “tumor progression compared to a control” value is reported as “substantially reduced tumor progression”.
Consider “RRRKKRKRRR cyclic (NITXR) (RRRKKRKRRRNIT[Gla]R; disulfide (positions not given here); not fully specified; also: cyclic, closure not given here; listed as Homo sapiens) [inhibiting peptide 4, X is γ-carboxyglutamic acid]”, for which, in test [6], the “tumor progression compared to a control” value is recorded as “substantially reduced tumor progression”. Besides, the “angiogenesis of the mouse aortic rings” value in the test with WT mouse aortic rings is recorded as “inhibited angiogenesis”.
As to “RRRKKRKRRR cyclic (NPLXK) (RRRKKRKRRRNPL[Gla]K; disulfide (positions not given here); not fully specified; listed as Homo sapiens) [inhibiting peptide 3, X is γ-carboxyglutamic acid]”, the “tumor progression compared to a control” value in test [6] is “substantially reduced tumor progression”. The “angiogenesis of the mouse aortic rings” value in the test on WT mouse aortic rings was “inhibited angiogenesis”.
